“And” between values parts separate entries of the source, which are not always exact repeats. Equal values may be shown once. Read-outs that look alike come from different tables or passages of the source.
Tests used:
Format in all cases: in vivo
Myzus persicae (aphids) = test: insecticidal mortality test, contact, Chinese Cabbage leaf; conditions: 72 h, read-out: grading of mortality, MP
Protocol: (§1) The activity of the Product was determined using a variety of insect pests. The Product was used in the form of liquid preparations containing 500, 250 or 100 parts per million (ppm) by weight of the Product. The preparations were made by dissolving the Product in acetone and diluting the solutions with water containing 0.01% by weight of a wetting agent sold under the trade name "LlSSAPOL" NX until the liquid preparations contained the required concentration of the Product. "Lissapol" is a Registered Trade Mark.
(§2) The test procedure adopted with regard to each pest was basically the same and comprised supporting a number of the pests on a medium which was usually a host plant or a foodstuff on which the pests feed, and treating either or both the pests and the medium with the preparations. The mortality of the pests was then assessed at periods usually varying from one to three days after the treatment.
(§3) The results of the tests are given in Table III for each of the Products, at the rate in parts per million given in the second column as a grading of mortality designated as A, B or C wherein A indicates 80-100% mortality, B indicates 50-79% mortality and C indicates less than 50% mortality.
(§4) In Table 111 the pest organism used is designated by a letter code and the pests species, the support medium or food, and the type and duration of test is given in Table II.

[1] = tested on: Nephotettix cincticeps (green leaf hopper - nymphs); test: insecticidal mortality test, contact, rice plant; conditions: read-out: grading of mortality, NC
Protocol: as §1, §2, §3, §4

[2] = tested on: Blattella germanica (cockroach nymphs); test: insecticidal mortality test, residual, plastic pot; conditions: 72 h, read-out: grading of mortality, BG
Protocol: as §1, §2, §3, §4

[3] = tested on: Tetranychus urticae (spider mites - adult); test: insecticidal mortality test, contact, French bean leaf; conditions: for mortality at 100 ppm: Tetranychus urticae, 72 h, read-out: grading of mortality, Tua, 100 ppm, 3 days
Protocol: as §1, §2, §3, §4

[4] = tested on: Spodoptera exigua (lesser army worm - larvae); test: insecticidal mortality test, residual, cotton leaf; conditions: read-out: grading of mortality, SP
Protocol: as §1, §2, §3, §4

[5] = tested on: Heliothis virescens (tobacco budworm - larvae); test: insecticidal mortality test, residual, cotton leaf; conditions: read-out: grading of mortality, HV
Protocol: as §1, §2, §3, §4

[6] = tested on: Musca domestica (houseflies - adults); test: insecticidal mortality test, contact, cotton wool/sugar; conditions: read-out: grading of mortality, MD
Protocol: as §1, §2, §3, §4

[7] = tested on: Diabrotica balteata (rootworm larvae); test: insecticidal mortality test, residual, filter paper/maize seed; conditions: read-out: grading of mortality, DB
Protocol: as §1, §2, §3, §4

[8] = tested on: Blattella germanica (adult males); test: Blattella germanica knockdown test; conditions: for KT₅₀: time taken to knockdown 50% of test insects; for KT₅₀ / KT₉₀: Tetramethrin: mean of 3 assessments; for KT₉₀: time taken to knockdown 90% of test insects; for pest or weed control at 250 ppm: topical, 250 ppm in kerosene, 1 cm3 sprayed onto 10 adult males, Tetramethrin: mean of 27 observations
Protocol: The test compound was dissolved in acetone (2 cm³) and the solution diluted to a concentration of 250 ppm with kerosene. 1 cm³ Of this preparation was sprayed onto 10 Blattella germanica (adult males) held in a netted plastic pot in a Burkhard potter Tower. Assessment of knockdown was performed at intervals of 5 minutes up to a total of 20 minutes. On removal from the Burkhard Potter Tower, the insects were held at 25°C and 65% relative humidity for 48 hours, and an assessment of mortality performed. Each test was repeated.
In some tests, additional knockdown assessment was performed at intervals of 1, 2, 3 and 4 minutes, and KT₅₀ and KT₉₀ values determined (the time taken, in minutes, to knockdown 50% and 90% respectively of test insects).

[9] = 72 h, 100 ppm, contact, rice plant, 3 days
[10] = 72 h, 100 ppm, residual, cotton leaf, 3 days
[11] = 48 h, 100 ppm, contact, rice plant, test duration of 2 days (footnote +)
[12] = 48 h, 100 ppm, residual, cotton leaf, test duration of 2 days (footnote +)
[13] = Blattella germanica, 10 min, 10 min, tests 1 and 2 are repeats, read-out: % KNOCKDOWN OBSERVED 10 min

| Structure (SMILES) | mortality at 100 ppm (Myzus persicae (aphids)) [%] | mortality at 100 ppm [2] [%] | mortality at 100 ppm [3] [%] | mortality at 100 ppm ([4]; 72 h) [%] | mortality at 100 ppm ([6]; 24 h) [%] | mortality at 100 ppm ([7]; 72 h) [%] | mortality at 100 ppm ([1]; 72 h) [%] | mortality at 100 ppm ([5]; 72 h) [%] | also measured |
| --- | --- | --- | --- | --- | --- | --- | --- | --- | --- |
| C#CC(C)OCc1c(F)c(F)c(COC(=O)C2C(C=C(Cl)C(F)(F)F)C2(C)C)c(F)c1F (stereo not drawn) [Product XVIII, (Rs)-4-[(l-methylprop-2-yn-1-yl)oxymethyl]-2,3,5,6-tetrafluorobenzyl (1RS,cis)-3-(Z-2-chloro-3,3,3-trifluoroprop-1-en-1-yl)-2,2-dimethylcyclopropanecarboxylate] | 80 to 100 | 80 to 100 | < 50 | 80 to 100 | 80 to 100 | 80 to 100 | – | – | mortality at 100 ppm [1, 9]: 80 to 100%; mortality at 100 ppm [5, 10]: 80 to 100% |
| C#CCOCc1c(F)c(F)c(COC(=O)[C@@H]2[C@H](/C=C(\Cl)C(F)(F)F)C2(C)C)c(F)c1F (relative stereo) [Product XX, 4-[(Prop-2-yn-1-yl)oxymethyl]-2,3,5,6-tetrafluorobenzyl (1RS,cis)-3-(Z-2-chloro-3,3,3-trifluoroprop-1-en-1-yl)-2,2-dimethylcyclopropanecarboxylate] | 80 to 100 | 80 to 100 | 80 to 100 | 80 to 100 | 80 to 100 | 80 to 100 | 80 to 100 | 80 to 100 | – |
| CC1(C)[C@H](C(=O)OCc2c(F)c(F)c(COC(=O)C(F)(F)F)c(F)c2F)[C@@H]1/C=C(\Cl)C(F)(F)F (relative stereo) [Product V, 4-(trifluoroacetoxymethyl)-2,3,5,6-tetrafluorobenzyl (1RS,cis)-3-(Z-2-chloro-3,3,3-trifluoroprop-1-en-1-yl)-2,2-dimethylcyclopropanecarboxylate] | 80 to 100 | 80 to 100 | 80 to 100 | 80 to 100 | 80 to 100 | 80 to 100 | 80 to 100 | 80 to 100 | – |
| CC(C)=NOCc1c(F)c(F)c(COC(=O)C2C(C=C(Cl)C(F)(F)F)C2(C)C)c(F)c1F (racemic) [Product XXII, 4-[(prop-2-ylideneamino)oxymethyl]-2,3,5,6-tetrafluorobenzyl (1RS, cis)-3-(Z-2-chloro-3,3,3-trifluoroprop-1-en-1-yl-2,2-dimethylcyclopropanecarboxylate] | 80 to 100 | < 50 | 80 to 100 | – | – | – | – | – | mortality at 100 ppm [1, 11]: 80 to 100%; mortality at 100 ppm ([4]; 48 h): 80 to 100%; mortality at 100 ppm [5, 12]: 80 to 100%; mortality at 100 ppm ([6]; 72 h): 80 to 100%; KT₅₀ ([8]; 250 ppm spray): 3.6 min and 2.5 min; KT₉₀ ([8]; 250 ppm spray): 8.3 min and 4.5 min; mortality at 250 ppm ([8]; Blattella germanica, 48 h, 250 ppm spray, insects held at 25°C and 65% relative humidity for 48 hours, tests 1 and 2 are repeats, read-out: % MORTALITY 48 hrs): 100%; pest or weed control at 250 ppm [8, 13]: 100%; mortality at 100 ppm ([7]; 48 h): 80 to 100% |
| COC(=O)OCc1c(F)c(F)c(COC(=O)[C@@H]2[C@H](/C=C(\Cl)C(F)(F)F)C2(C)C)c(F)c1F (relative stereo) [Product VII, 4-(Methoxycarbonyloxymethyl)-2,3,5,6-tetrafluorobenzyl (1RS,cis)-3-(Z-2-chloro-3,3,3-trifluoroprop-1-en-1-yl)-2,2-dimethylcyclopropanecarboxylate] | 80 to 100 | 80 to 100 | 80 to 100 | 80 to 100 | < 50 | 80 to 100 | 80 to 100 | 80 to 100 | – |
| CC1(C)[C@H](C(=O)OCc2c(F)c(F)c(COS(C)(=O)=O)c(F)c2F)[C@@H]1/C=C(\Cl)C(F)(F)F (relative stereo) [Product IV, 4-(methanesulphonyloxymethyl)-2,3,5,6-tetrafluorobenzyl (1RS,cis)-3-(Z-2-chloro-3,3,3-trifluoroprop-1-en-1-yl)-2,2-dimethylcyclopropanecarboxylate] | 80 to 100 | 80 to 100 | 80 to 100 | 80 to 100 | < 50 | < 50 | 80 to 100 | 80 to 100 | – |
| C#CCN(C)Cc1c(F)c(F)c(COC(=O)[C@@H]2[C@H](/C=C(\Cl)C(F)(F)F)C2(C)C)c(F)c1F (racemic) [Product XXIV, 4-[(N-(prop-2-yn-1-yl)-N-methyl)aminomethyl]-2,3,5-6-tetrafluorobenzyl (1RS, cis)-3-(Z-2-chloro-3,3,3-trifluoroprop-1-en-1-yl)-2,2-dimethylcyclopropanecarboxylate] | 80 to 100 | 50 to 79 | 50 to 79 | – | – | – | – | – | mortality at 100 ppm [1, 11]: 80 to 100%; mortality at 100 ppm ([4]; 48 h): 80 to 100%; mortality at 100 ppm [5, 12]: 80 to 100%; mortality at 100 ppm ([6]; 72 h): 80 to 100%; % MORTALITY 48 hrs ([8]; 250 ppm spray, insects held at 25°C and 65% relative humidity for 48 hours, tests 1 and 2 are repeats, 2880 min): 100% and 70%; KT₅₀ ([8]; 250 ppm spray): 4.2 min and 5.0 min; KT₉₀ ([8]; 250 ppm spray): 8.8 min and 9.0 min; pest or weed control at 250 ppm ([8]; Blattella germanica, 5 min, 5 min, tests 1 and 2 are repeats, read-out: % KNOCKDOWN OBSERVED 5 min): 60%; pest or weed control at 250 ppm [8, 13]: 100%; mortality at 100 ppm ([7]; 48 h): 80 to 100% |
| CC1(C)[C@H](C(=O)OCc2c(F)c(F)c(CBr)c(F)c2F)[C@@H]1/C=C(\Cl)C(F)(F)F (relative stereo) [Product I, 4-(Bromomethyl)-2,3,5,6-tetrafluorobenzyl (1RS,cis)-3-(Z-2-chloro-3,3,3-trifluoroprop-1-en-1-yl)-2,2-dimethyl-cyclopropanecarboxylate] | – | – | < 50 | – | < 50 | 80 to 100 | – | 50 to 79 | – |
| CC#CCOCc1c(F)c(F)c(COC(=O)[C@@H]2[C@H](/C=C(\Cl)C(F)(F)F)C2(C)C)c(F)c1F (relative stereo) [Product XIX, 4-[(But-2-yn-1-yl)oxymethyl]-2,3,5,6-tetrafluorobenzyl (1RS,cis)-3-(Z-2-chloro-3,3,3-trifluoroprop-1-en-1-yl)-2,2-dimethylcyclopropanecarboxylate] | 80 to 100 | 80 to 100 | 50 to 79 | 80 to 100 | 50 to 79 | 80 to 100 | 80 to 100 | 80 to 100 | – |
| CC1(C)C(C=C(Cl)C(F)(F)F)C1C(=O)OCc1c(F)c(F)c(COC=O)c(F)c1F (racemic) [Product VIII, 4-(Formyloxymethyl)-2,3,5,6-tetrafluoromethyl (1RS, cis)-3-(Z-2-chloro-3,3,3-trifluoroprop-1-en-1-yl)-2,2-dimethylcyclopropanecarboxylate] | – | – | – | 80 to 100 | 80 to 100 | 80 to 100 | – | – | mortality at 100 ppm [1, 9]: 80 to 100%; grading of mortality, Tua ([3]; 100 ppm, 3 days, listed as VIII, 4320 min): A (A indicates 80-100% mortality); mortality at 100 ppm [5, 10]: 80 to 100% |

Source: EP0302626A2, “Insecticidal compounds” (IMPERIAL CHEMICAL INDUSTRIES PLC, priority 1987, dated 1989)
